Measured values from patent publication EP3875456A1, “HETERO-BIFUNCTIONAL PROTEOLYSIS-TARGETING CHIMERAS (PROTACS) FOR THE SELECTIVE DEGRADATION OF FK506-BINDING PROTEINS (FKBPS)” (Technische Universität Darmstadt, priority 2020, dated 2021).

Molecular target: T1, FKBP51FK1 (Homo sapiens, UniProt Q13451)
T1 construct: FKBP51FK1
T1 sequence (Q13451 42-130 limits assumed): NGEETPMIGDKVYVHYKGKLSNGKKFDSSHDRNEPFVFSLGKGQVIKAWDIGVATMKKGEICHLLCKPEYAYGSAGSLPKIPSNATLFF
Assay: Binding affinities of exemplary compounds to FKBP51
Protocol: Binding to FKBP51 is an important prerequisite in order to allow degradation of FKBP51. Thus, the binding affinities of the newly synthesized molecules (table 1) were tested.

Row | SMILES | Ki [nM]
1 | COc1cccc([C@@H](CCc2ccc(OCc3cn(CCOCC(=O)Nc4cccc5c4C(=O)N(C4CCC(=O)NC4=O)C5=O)nn3)c(OC)c2)OC(=O)[C@@H]2CCCCN2C(=O)[C@H](c2cc(OC)c(OC)c(OC)c2)C2CCCCC2)c1 (stereo partly drawn) [MTQ333, (25)-(1R)-3-(4-((1-(2-(2-((2-(2,6-Dioxopiperidin-3-yl)-1,3-dioxoisoindolin-4-yl)amino)-2-oxoethoxy)ethyl)-1H-1,2,3-triazol-4-yl)methoxy)-3-methoxyphenyl)-1-(3-methoxyphenyl)propyl 1-((S)-2-cyclohexyl-2-(3,4,5-trimethoxyphenyl)acetyl)piperidine-2-carboxylate] | 22 ± 6
2 | COc1ccc(CC[C@@H](OC(=O)[C@@H]2CCCCN2C(=O)[C@H](c2cc(OC)c(OC)c(OC)c2)C2CCCCC2)c2cccc(OCc3cn(CCOCCOCC(=O)N[C@H](C(=O)N4C[C@H](O)C[C@H]4C(=O)NCc4ccc(-c5scnc5C)cc4)C(C)(C)C)nn3)c2)cc1OC [MTQ200] | 24 ± 7
3 | C#CCOc1cccc([C@H](CCc2ccc(OC)c(OC)c2)OC(=O)[C@H]2CCCCN2C(=O)[C@H](c2cc(OC)c(OC)c(OC)c2)C2CCCCC2)c1 (stereo in doubt) [Molecule (9), (S)-(R)-3-(3,4-Dimethoxyphenyl)-1-(3-(prop-2-yn-1-yloxy)phenyl)propyl 1-((S)-2-cyclohexyl-2-(3,4,5-trimethoxyphenyl)acetyl)piperidine-2-carboxylate] | 32 ± 7
4 | C#CCOc1cc(CCC(OC(=O)C2CCCCN2C(=O)[C@H](c2cc(OC)c(OC)c(OC)c2)C2CCCCC2)c2cccc(OC)c2)ccc1OC (stereo in doubt) [Molecule (10), (S)-(R)-3-(4-methoxy-3-(prop-2-yn-1-yloxy)phenyl)-1-(3-methoxyphenyl)propyl 1-((S)-2-cyclohexyl-2-(3,4,5-trimethoxyphenyl)acetyl)piperidine-2-carboxylate] | 149 ± 39
5 | COc1ccc(CC[C@@H](OC(=O)[C@@H]2CCCCN2C(=O)[C@H](c2cc(OC)c(OC)c(OC)c2)C2CCCCC2)c2cccc(OCc3cn(CCOCC(=O)Nc4cccc5c4C(=O)N(C4CCC(=O)NC4=O)C5=O)nn3)c2)cc1OC (stereo partly drawn) [MTQ204, (25)-(1R)-3-(3,4-Dimethoxyphenyl)-1-(3-((1-(2-(2-((2-(2,6-dioxopiperidin-3-yl)-1,3-dioxoisoindolin-4-yl)amino)-2-oxoethoxy)ethyl)-1H-1,2,3-triazol-4-yl)methoxy)phenyl)propyl1-((S)-2-cyclohexyl-2-(3,4,5-trimethoxyphenyl)acetyl)piperidine-2-carboxylate] | 19 ± 5
6 | COc1cccc([C@H](CCc2ccc(OCc3cn(CCOCCOCCOCC(=O)N[C@H](C(=O)N4C[C@H](O)C[C@H]4C(=O)NCc4ccc(-c5scnc5C)cc4)C(C)(C)C)nn3)c(OC)c2)OC(=O)[C@H]2CCCCN2C(=O)[C@H](c2cc(OC)c(OC)c(OC)c2)C2CCCCC2)c1 [MTQ330, (S)-(R)-3-(4-((1-((S)-13-((2S,4R)-4-Hydroxy-2-((4-(4-methylthiazol-5-yl)benzyl)carbamoyl)pyrrolidine-1-carbonyl)-14,14-dimethyl-11-oxo-3,6,9-trioxa-12-azapentadecyl)-1H-1,2,3-triazol-4-yl)methoxy)-3-methoxyphenyl)-1-(3-methoxyphenyl)propyl 1-((S)-2-cyclohexyl-2-(3,4,5-trimethoxyphenyl)acetyl)piperidine-2-carboxylate] | 86 ± 26
7 | COc1cccc([C@@H](CCc2ccc(OCc3cn(CCOCCOCCOCCOCCOCC(=O)N[C@H](C(=O)N4C[C@H](O)C[C@H]4C(=O)NCc4ccc(-c5scnc5C)cc4)C(C)(C)C)nn3)c(OC)c2)OC(=O)[C@@H]2CCCCN2C(=O)[C@H](c2cc(OC)c(OC)c(OC)c2)C2CCCCC2)c1 [MTQ332, (S)-(R)-3-(4-((1-((S)-19-((2S,4R)-4-Hydroxy-2-((4-(4-methylthiazo1-5-yl)benzyl)carbamoyl)pyrrolidine-1-carbonyl)-20,20-dimethyl-17-oxo-3,6,9,12,15-pentaoxa-18-azahenicosyl)-1H-1,2,3-triazol-4-yl)methoxy)-3-methoxyphenyl)-1-(3-methoxyphenyl)propyl 1-((S)-2-cyclohexyl-2-(3,4,5-trimethoxyphenyl)acetyl)piperidine-2-carboxylate] | 34 ± 10
8 | COc1cccc([C@@H](CCc2ccc(OCc3cn(CCOCCOCC(=O)Nc4cccc5c4C(=O)N(C4CCC(=O)NC4=O)C5=O)nn3)c(OC)c2)OC(=O)[C@@H]2CCCCN2C(=O)[C@H](c2cc(OC)c(OC)c(OC)c2)C2CCCCC2)c1 (stereo partly drawn) [MTQ334, (25)-(1R)-3-(4-((1-(2-(2-(2-((2-(2,6-Dioxopiperidin-3-yl)-1,3-dioxoisoindolin-4-yl)amino)-2-oxoethoxy)ethoxy)ethyl)-1H-1,2,3-triazol-4-yl)methoxy)-3-methoxyphenyl)-1-(3-methoxyphenyl)propyl 1-((S)-2-cyclohexyl-2-(3,4,5-trimethoxyphenyl)acetyl)piperidine-2-carboxylate] | 21 ± 10
9 | COc1cccc([C@H](CCc2ccc(OCc3cn(CCOCC(=O)N[C@H](C(=O)N4C[C@H](O)C[C@H]4C(=O)NCc4ccc(-c5scnc5C)cc4)C(C)(C)C)nn3)c(OC)c2)OC(=O)[C@H]2CCCCN2C(=O)[C@H](c2cc(OC)c(OC)c(OC)c2)C2CCCCC2)c1 [MTQ328, (S)-(R)-3-(4-((1-(2-(2-(((S)-1-((2S,4R)-4-Hydroxy-2-((4-(4-methylthiazol-5-yl)benzyl)carbamoyl)pyrrolidin-1-yl)-3,3-dimethyl-1-oxobutan-2-yl)amino)-2-oxoethoxy)ethyl)-1H-1,2,3-triazol-4-yl)methoxy)-3-methoxyphenyl)-1-(3-methoxyphenyl)propyl 1-((S)-2-cyclohexyl-2-(3,4,5-trimethoxyphenyl)acetyl)piperidine-2-carboxylate] | 47 ± 19

Continued, values first:

Row | Ki [nM] | SMILES
10 | 22 ± 6 | COc1ccc(CC[C@@H](OC(=O)[C@@H]2CCCCN2C(=O)[C@H](c2cc(OC)c(OC)c(OC)c2)C2CCCCC2)c2cccc(OCc3cn(CCOCCOCCOCC(=O)Nc4cccc5c4C(=O)N(C4CCC(=O)NC4=O)C5=O)nn3)c2)cc1OC (stereo partly drawn) [MTQ206, (2S)-(1R)-3-(3,4-Dimethoxyphenyl)-1-(3-((1-(2-(2-(2-(2-((2-(2,6-dioxopiperidin-3-yl)-1,3-dioxoisoindolin-4-yl)amino)-2-oxoethoxy)ethoxy)ethoxy)ethyl)-1H-1,2,3-triazol-4-yl)methoxy)phenyl)propyl 1-((S)-2-cyclohexyl-2-(3,4,5-trimethoxyphenyl)acetyl)piperidine-2-carboxylate]
11 | 25 ± 6 | COc1ccc(CC[C@H](OC(=O)[C@H]2CCCCN2C(=O)[C@H](c2cc(OC)c(OC)c(OC)c2)C2CCCCC2)c2cccc(OCc3cn(CCOCC(=O)N[C@H](C(=O)N4C[C@H](O)C[C@H]4C(=O)NCc4ccc(-c5scnc5C)cc4)C(C)(C)C)nn3)c2)cc1OC (stereo in doubt) [MTQ199, (S)-(R)-3-(3,4-Dimethoxyphenyl)-1-(3-((1-(2-(2-(((S)-1-((2S,4R)-4-hydroxy-2-((4-(4-methylthiazol-5-yl)benzyl)carbamoyl)pyrrolidin-1-yl)-3,3-dimethyl-1-oxobutan-2-yl)amino)-2-oxoethoxy)ethyl)-1H-1,2,3-triazol-4-yl)methoxy)phenyl)propyl 1-((S)-2-cyclohexyl-2-(3,4,5-trimethoxyphenyl)acetyl)piperidine-2-carboxylate]
12 | 60 ± 16 | COc1cccc([C@H](CCc2ccc(OCc3cn(CCOCCOCC(=O)N[C@H](C(=O)N4C[C@H](O)C[C@H]4C(=O)NCc4ccc(-c5scnc5C)cc4)C(C)(C)C)nn3)c(OC)c2)OC(=O)[C@H]2CCCCN2C(=O)[C@H](c2cc(OC)c(OC)c(OC)c2)C2CCCCC2)c1 [MTQ329, (S)-(R)-3-(4-((1-(2-(2-(2-(((S)-1-((2S,4R)-4-Hydroxy-2-((4-(4-methylthiazol-5-yl)benzyl)carbamoyl)pyrrolidin-1-yl)-3,3-dimethyl-1-oxobutan-2-yl)amino)-2-oxoethoxy)ethoxy)ethyl)-1H-1,2,3-triazol-4-yl)methoxy)-3-methoxyphenyl)-1-(3-methoxyphenyl)propyl 1-((S)-2-cyclohexyl-2-(3,4,5-trimethoxyphenyl)acetyl)piperidine-2-carboxylate]
13 | 18 ± 4 | COc1ccc(CC[C@@H](OC(=O)[C@@H]2CCCCN2C(=O)[C@H](c2cc(OC)c(OC)c(OC)c2)C2CCCCC2)c2cccc(OCc3cn(CCOCCOCCOCCOCC(=O)Nc4cccc5c4C(=O)N(C4CCC(=O)NC4=O)C5=O)nn3)c2)cc1OC (stereo partly drawn) [MTQ207, (2S)-(1R)-3-(3,4-Dimethoxyphenyl)-1-(3-((1-(14-((2-(2,6-dioxopiperidin-3-yl)-1,3-dioxoisoindolin-4-yl)amino)-14-oxo-3,6,9,12-tetraoxatetradecyl)-1H-1,2,3-triazol-4-yl)methoxy)phenyl)propyl 1-((S)-2-cyclohexyl-2-(3,4,5-trimethoxyphenyl)acetyl)piperidine-2-carboxylate]
14 | 12 ± 3 | COc1ccc(CC[C@H](OC(=O)[C@H]2CCCCN2C(=O)[C@H](c2cc(OC)c(OC)c(OC)c2)C2CCCCC2)c2cccc(OCc3cn(CCOCCOCCOCCOCCOCC(=O)N[C@H](C(=O)N4C[C@H](O)C[C@H]4C(=O)NCc4ccc(-c5scnc5C)cc4)C(C)(C)C)nn3)c2)cc1OC [MTQ203, (S)-(R)-3-(3,4-Dimethoxyphenyl)-1-(3-((1-((S)-19-((2S,4R)-4-hydroxy-2-((4-(4-methylthiazol-5-yl)benzyl)carbamoyl)pyrrolidine-1-carbonyl)-20,20-dimethyl-17-oxo-3,6,9,12,15-pentaoxa-18-azahenicosyl)-1H-1,2,3-triazol-4-yl)methoxy)phenyl)propyl 1-((S)-2-cyclohexyl-2-(3,4,5-trimethoxyphenyl)acetyl)piperidine-2-carboxylate]
